Earlier results on one compound are cited in patent US20220184095A1 (Mylan Specialty L.P., priority 2019, published 2022).

For this series the following is noted: orally delivered, humans.

Regarding `Cc1cnc(NC(=O)C2=C(O)c3ccccc3S(=O)(=O)N2C)s1` [meloxicam, 4-hydroxy-2-methyl-N-(5-methyl-2-thiazolyl)-2H-1,2-benzothiazine-3-carboxamide-1,1-dioxide], the “Tmax (time to reach maximum concentration)” value was 4 to 6 h and the “time to reach the therapeutic concentration that enables the onset of action” value was 2 to 3 h.
